Assay [1] has as its system left ventricular cardiac tissue. Kind of assay: Cardiac tissue fibrosis, immunohistochemistry and Western blot after MBG infusion. Type of assay: in vivo, Sprague-Dawley rats. The method, then:
Briefly, Sprague-Dawley rats weighing.apprxeq.250 g at the time of surgery were subjected to either sham surgery with no MBG infusion (Sham), sham surgery with placement of a minipump infusing MBG at 10 μg/kg per day (MBG), PNx, and PNx after immunization against MBG (PNx-IM). MBG of extremely high purity (>99%) was isolated from the venom of Bufa marinas by Kennedy et al. In addition to these maneuvers, a group of PNx animals was subjected to adrenalectomy as well (PNx-ADx).
(determined after extraction on a C-18 column using DELPHIA as described previously), aldosterone (determined with ELISA kit 10004377, Cayman Chemical) and cardiac immunohistochemistry (vida infra) were assessed 4 weeks after surgery.
Western blot analysis was performed on protein isolated from tissue homogenates, cell culture whole cell lysates, or nuclear extracts as described previously.
Immunization against MBG attenuated these increases. Western blot analysis confirmed that PNx and MBG had 2 to 2.5 times the expression of procollagin-1 and a smooth muscle actin seen with sham-operated controls, whereas PNx-IM expression of both procollagen-1 and a smooth muscle actin was substantially less than that seen with PNx.
Other data includes a representative pressure-volume loops obtained during vena cava occlusion from rats subjected to sham surgery (Sham), PNx, MBG infusion (MBG), and PNx after immunization against an MBG-albumin conjugate (PNx-IM). Regression lines fit to the end systolic pressure volume relationship (ESPVR, dotted line) and the end diastolic pressure volume relationship (EDPVR, solid line). B, ventricular cross-sectional areas determined from trichrome stains of tissue obtained from Sham, PNx, MBG, and PNx-IM animals (each group: N=8 animals, .apprxeq.100 measurements averaged to determine mean for each animal; data shown as the group mean.+−.SEM using N−8). Representative immunohistochemistry images of cardiac tissues stained for (c) collagen-1 and (d) a smooth muscle actin (aSMA). Counterstain for both c and d was hematoxlyn. Western blot and corresponding densitometric analysis for (e) procollagen-1 and (f) aSMA. Note that both collagen-1 and aSMA staining are much more intense in the PNx and MBG groups compared with Sham, whereas the PNx-IM staining is similar to Sham. Similarly, procollagen and aSMA expression are substantially higher in PNx and MBG animals compared with Sham, whereas immunization against MBG (PNx-IM) attenuated the changes seen with PNx. Data for e and f are derived from N=6 experiments in each group and shown as mean.+−.SEM. Sham refers to hearts isolated from control animals, PNx refers to PNx, MBG refers to MBG supplemented, and PNx-IM refers to animals immunized against MGB before PNx surgery. *P<0.05, **P<0.01 vs Sham, #P<0.01 vs PNx.
(A western blot detects proteins with antibodies after separation by electrophoresis.)

Assay [2] has as its system SYF+Src line. Kind of assay: In vitro wound healing (scrape injury) in SYF+Src fibroblasts. In kind it is cell-based, mouse. To be noted: 12 hour pretreatment. As to the method: Next, we examined whether wound healing might be advantageously impacted by cardiotonic steroids. We grew a mouse fibroblast cell line, the SYF+Src line to confluence and make injuries by scraping with a pipette tip.
Representative images from fibroblasts at 3, 7 and 12 hours following injury. Quantification of wound closure from fibroblast cultures. Data represents N=6 separate pairs of experiments, each of which involves 3 determinations at each time point. Data shown as mean+/−SEM. **<0.01. We proposed to enhance skin fibroblast collagen production by topical or injected administration of cardiotonic steroids and prevent or reverse aging related loss of skin tone.

The results in this text go back to US9072751B2, “Na/K-ATPase ligand” (priority 2006, dated 2015).

Turning to `C[C@]12CC[C@H](O)C[C@@]1(O)CC[C@@H]1[C@@H]2CC[C@]2(C)[C@@H](c3ccc(=O)oc3)C[C@H]3O[C@]132` [MBG, marinobufagenin], the Cardiac fibrosis result in assay [1] is given as “caused cardiac fibrosis”. Moreover, in assay [1] (heart tissue), the “Collagen-1 and a smooth muscle actin staining (immunohistochemistry)” value is given as “marked increases”; the “Expression of a smooth muscle actin relative to sham-operated controls (Western blot)” value was 2 to 2.5 times; the “Expression of procollagin-1 relative to sham-operated controls (Western blot)” value was 2 to 2.5 times. Also, the “Closure of the experimental lesion” value in assay [2] is listed as “markedly accelerated”.
